Test results published in the CheMixHub viscosity set.

Assay: xn = mol fraction of the nth substance listed

Nc1ccccc1 + CCCCCCO
viscosity [mPa·s], 100 kPa
Conditions | 293.15 K | 303.15 K | 313.15 K | 323.15 K
x1 = 0.0816 | 4.79 | 3.54 | 2.65 | 2.05
x1 = 0.1448 | – | 3.327 | 2.396 | –
x1 = 0.1533 | 4.4 | 3.29 | 2.48 | 1.92
x1 = 0.2422 | 4.1 | 3.09 | 2.33 | 1.82
x1 = 0.2758 | – | 2.857 | 1.969 | –
x1 = 0.3514 | 3.81 | 2.87 | 2.21 | 1.73
x1 = 0.4176 | – | 2.453 | 1.627 | –
x1 = 0.4449 | 3.64 | 2.74 | 2.12 | 1.66
x1 = 0.5246 | – | 2.213 | 1.457 | –
x1 = 0.5571 | 3.55 | 2.61 | 2.04 | 1.61
x1 = 0.6037 | – | 2.119 | 1.397 | –
x1 = 0.6483 | 3.52 | 2.59 | 2.03 | 1.61
x1 = 0.7131 | – | 2.101 | 1.432 | –
x1 = 0.7361 | 3.55 | 2.61 | 2.05 | 1.63
x1 = 0.8283 | – | 2.283 | 1.639 | –
x1 = 0.8542 | 3.73 | 2.72 | 2.16 | 1.71
x1 = 0.932 | – | 2.648 | 1.979 | –
x1 = 0.9356 | 4.03 | 2.93 | 2.32 | 1.84

CCNCC + CCCCCO
viscosity [mPa·s], 100 kPa
Conditions | x1 = 0.0806 | x1 = 0.1601 | x1 = 0.236 | x1 = 0.3486 | x1 = 0.4399 | x1 = 0.5596 | x1 = 0.6501 | x1 = 0.7397 | x1 = 0.8494 | x1 = 0.9401
293.15 K | 3.45 | 2.94 | 2.51 | 1.92 | 1.52 | 1.09 | 0.833 | 0.645 | 0.476 | 0.373
303.15 K | 2.61 | 2.22 | 1.87 | 1.43 | 1.12 | 0.79 | 0.618 | 0.496 | 0.386 | 0.323
313.15 K | 2 | 1.7 | 1.43 | 1.09 | 0.847 | 0.594 | 0.47 | 0.38 | 0.317 | 0.28
323.15 K | 1.54 | 1.31 | 1.09 | 0.83 | 0.64 | 0.45 | 0.357 | 0.3 | 0.261 | 0.245

Nc1ccccc1 + CCCCCO
viscosity [mPa·s]
Conditions | 293.15 K | 303.15 K | 313.15 K | 323.15 K
100 kPa, x1 = 0.0802 | 3.66 | 2.77 | 2.11 | 1.66
100 kPa, x1 = 0.1304 | – | 2.664 | 2.018 | –
100 kPa, x1 = 0.1536 | 3.42 | 2.6 | 2.01 | 1.57
100 kPa, x1 = 0.2363 | 3.26 | 2.48 | 1.93 | 1.52
100 kPa, x1 = 0.2524 | – | 2.309 | 1.697 | –
100 kPa, x1 = 0.3418 | 3.15 | 2.4 | 1.86 | 1.48
100 kPa, x1 = 0.3885 | – | 1.947 | 1.361 | –
100 kPa, x1 = 0.4371 | 3.11 | 2.34 | 1.84 | 1.47
100 kPa, x1 = 0.4944 | – | 1.724 | 1.147 | –
100 kPa, x1 = 0.5521 | 3.12 | 2.32 | 1.84 | 1.47
100 kPa, x1 = 0.5745 | – | 1.627 | 1.051 | –
100 kPa, x1 = 0.6518 | 3.21 | 2.37 | 1.88 | 1.5
100 kPa, x1 = 0.6878 | – | 1.619 | 1.031 | –
100 kPa, x1 = 0.7411 | 3.35 | 2.47 | 1.96 | 1.56
100 kPa, x1 = 0.8105 | – | 1.865 | 1.245 | –
100 kPa, x1 = 0.8487 | 3.63 | 2.66 | 2.12 | 1.67
100 kPa, x1 = 0.924 | – | 2.42 | 1.75 | –
100 kPa, x1 = 0.9425 | 4.04 | 2.95 | 2.32 | 1.83
101.33 kPa, x2 = 0.1207 | 3.714 | – | – | –
101.33 kPa, x2 = 0.2883 | 3.273 | – | – | –
101.33 kPa, x2 = 0.3221 | 3.227 | – | – | –
101.33 kPa, x2 = 0.3789 | 3.161 | – | – | –
101.33 kPa, x2 = 0.4074 | 3.138 | – | – | –
101.33 kPa, x2 = 0.5661 | 3.087 | – | – | –
101.33 kPa, x2 = 0.7695 | 3.258 | – | – | –
101.33 kPa, x2 = 0.8055 | 3.326 | – | – | –
101.33 kPa, x2 = 0.8557 | 3.444 | – | – | –
101.33 kPa, x2 = 0.9099 | 3.605 | – | – | –
101.33 kPa, x2 = 0.9484 | 3.756 | – | – | –
101.33 kPa, x2 = 0.9525 | 3.775 | – | – | –

Oc1ccc2ccccc2c1 + CCCCCOC(C)=O
Conditions | viscosity [mPa·s]
298.15 K, 101 kPa, x2 = 0.5 | 1.598

CC(C)C=O + CCCCO
100 kPa
Conditions | viscosity [mPa·s]
294.4 K, x1 = 0.76 | 8.02
296.4 K, x1 = 0.6 | 13.17
296.9 K, x1 = 0.9 | 5.36
314.5 K, x1 = 0.6 | 8.56

CCC(O)CO (stereo not drawn) + CCCCO
viscosity [mPa·s], 100 kPa
Conditions | x2 = 0.101 | x2 = 0.2 | x2 = 0.302 | x2 = 0.4 | x2 = 0.5 | x2 = 0.501 | x2 = 0.601 | x2 = 0.701 | x2 = 0.801 | x2 = 0.901
298.15 K | 34.46 | 23.34 | 17.03 | 12.19 | 8.818 | – | 6.546 | 5.014 | 3.978 | 3.113
303.15 K | 25.85 | 17.61 | 13.14 | 10.08 | 7.482 | – | 5.629 | 4.383 | 3.441 | 2.757
308.15 K | 19.83 | 13.86 | 10.42 | 8.155 | 6.2 | – | 4.703 | 3.738 | 2.982 | 2.41
313.15 K | 15.54 | 10.92 | 8.434 | 6.703 | 5.179 | – | 3.992 | 3.217 | 2.596 | 2.122
318.15 K | 12.35 | 8.882 | 6.942 | 5.58 | – | 4.373 | 3.419 | 2.793 | 2.271 | 1.874
323.15 K | 9.916 | 7.286 | 5.744 | 4.694 | – | 3.724 | 2.942 | 2.417 | 1.989 | 1.66

Oc1ccc2ccccc2c1 + CCCCO
viscosity [mPa·s], 101 kPa
Conditions | x1 = 0.04 | x1 = 0.08 | x1 = 0.12 | x1 = 0.16 | x1 = 0.2
293.15 K | 3.344 | 3.751 | 4.242 | 4.879 | 5.596
303.15 K | 2.529 | 2.808 | 3.17 | 3.582 | 4.024
313.15 K | 1.974 | 2.175 | 2.421 | 2.751 | 3.144
323.15 K | 1.592 | 1.712 | 1.882 | 2.11 | 2.374
